Key:
[1] = molecular target: T1, human β3 adrenergic receptor (Homo sapiens, UniProt P13945); assay: cAMP accumulation (SPA) in CHO cells transfected with human β3 adrenergic receptor; format: cell-based; details: for EC50: CHO cells expressing human β3-AR, cAMP by SPA, 30 min incubation, 10^-9M to 10^-5M; for IA(β3): maximal response relative to isoproterenol at 10^-5M (IA=% activity compound/% activity isoproterenol)
T1 construct: Full length β3 AR clones (402 amino acids) containing the last 6 amino acids of hβ3—AR are prepared; expressed in transfected cells; host or cells: CHO cells
Experimental: The ability of compounds of this invention to treat or inhibit disorders related to insulin resistance or hyperglycemia was established with representative compounds of this invention in the following standard pharmacological test procedures, which measured the binding selectivity to the β1, β2, and β3 adrenergic receptors. Binding to the receptors was measured in Chinese Hamster ovary (CHO) cells that were transfected with adrenergic receptors. The following briefly summarizes the procedures used and results obtained.
Cloning of Human β3-AR Genomic DNA: cDNA was constructed by ligating four polymerase chain reaction (PCR) products using the following primers: an ATG-Narl fragment, sense primer 5′-[…]3′ and anti-sense primer 5′[…]3′; a Narl-Accl fragment, 5′[…]3′ as sense and 5′[…]3′ as anti-sense primer; an Accli-Styl fragment, sense primer 5′[…]3′ and anti-sense primer 5′[…]3′ and a Styl-TAG fragment, with sense primer 5′[…]3′ and anti-sense primer 5′[…]3′. The corresponding primer sequences are described in Mantzoros, C. S., et. al., Diabetes 45: 909-914 (1996). The four fragments are ligated into a pUC 18 plasmid (Gibco-BRL) and sequenced. Full length β3 AR clones (402 amino acids) containing the last 6 amino acids of hβ3—AR are prepared with the β3-βARpcDNA3 from ATTC.
Binding Procedure: Clones expressing receptor levels of 70 to 110 fmoles/mg protein were used in the test procedures. CHO cells were grown in 24-well tissue culture plates in Dulbecco's Modified Eagle Media with 10% fetal bovine serum, MEM non-essential amino acids, Penicillin-Streptompycin and Geneticin. On the day of test procedure, growth medium was replaced with preincubation media (Dulbecco's Modified Eagle Media and incubated for 30 minutes at 37° C. Preincubation medium was replaced with 0.2 ml treatment medium containing DMEM media containing 250 μM IBMX (isobutyl-1-methylxantine) plus 1 mM ascorbic acid with test compound dissolved in DMSO. Test compounds were tested over a concentration range of 10^−9M to 10^−5M for β3 cells and 10^−8 to 10^−4M for β1 and β2 transfected cells. Isoproterenol (10^−5M) was used as an internal standard for comparison of activity. Cells were incubated at 37° C. on a rocker for 30 min with the β3 cells and 15 min for β1 and β2 cells. Incubation was stopped with the addition of 0.2N HCl and neutralized with 2.5N NaOH. The plates, containing the cells and neutralized media, were stored at −20 degrees celsius until ready to test for cAMP using the SPA test kit (Amersham).
Data Analysis and Results: Data collected from the SPA test procedure were analyzed as per cent of the maximal isoproterenol response at 10^−5M. Activity curves were plotted using the SAS statistical and graphics software. EC50 values were generated for each compound and the maximal response (IA) developed for each compound is compared to the maximal response of isoproternol at 10^−5M from the following formula:
IA=% activity compound/% activity isoproterenol

T1 sequence (P13945 whole entry): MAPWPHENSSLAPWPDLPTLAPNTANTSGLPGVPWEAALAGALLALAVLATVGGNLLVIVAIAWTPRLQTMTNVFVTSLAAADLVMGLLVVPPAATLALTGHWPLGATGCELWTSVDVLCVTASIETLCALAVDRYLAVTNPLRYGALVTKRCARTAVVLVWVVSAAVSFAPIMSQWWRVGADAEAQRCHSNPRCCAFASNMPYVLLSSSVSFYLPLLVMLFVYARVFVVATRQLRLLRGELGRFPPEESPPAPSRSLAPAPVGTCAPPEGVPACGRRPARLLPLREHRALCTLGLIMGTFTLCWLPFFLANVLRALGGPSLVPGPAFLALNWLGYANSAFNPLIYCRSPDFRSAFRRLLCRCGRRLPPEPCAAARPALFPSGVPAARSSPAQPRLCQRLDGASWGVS

Compound	melting point [°C]	EC50 [1] [nM]	IA(β3) [1]
O=S(=O)(Cc1noc(-c2ccccc2)n1)c1ccc(CCNCC(O)c2ccc(OC(F)(F)F)cc2)cc1 (stereo not drawn) [Example 8, 2-[(4{[(5-phenyl-1,2,4-oxadiazol-3-yl)methyl]sulfonyl}phenethyl)amino]-1-[4-(trifluoromethoxy)phenyl]-1-ethanol]	125 to 127		
Cc1noc(C)c1-c1nc(CS(=O)(=O)c2ccc(CCNC[C@H](O)COc3ccc(O)cc3)cc2)no1 [Example 12, 4-[((2S)-3-{[4-({[5-(3,5-dimethyl-4-isoxazolyl)-1,2,4-oxadiazol-3-yl]methyl}sulfonyl)phenethyl]amino}-2-hydroxypropyl)oxy]phenol]		70	
CC(C)(C)c1nc(CS(=O)(=O)c2ccc(CCNC[C@H](O)COc3ccc(O)cc3)cc2)no1 [Example 15, 4-[((2S)-3-{[4-({[5-(tert-butyl)-1,2,4-oxadiazol-3-yl]methyl}sulfonyl)phenethyl]amino}-2-hydroxypropyl)oxy]phenol]		28	0.92
COc1ccc(-c2nc(CS(=O)(=O)c3ccc(CCNC[C@H](O)COc4ccc(O)c(C)c4)cc3)no2)cc1 [Example 19, 4-[((2S)-2-hydroxy-3-{[4-({[5-(4-methoxyphenyl)-1,2,4-oxadiazol-3-yl]methyl}sulfonyl)phenethyl]amino}propyl)oxy]-2-methylphenol]		68	0.95
[O-][S+](Cc1noc(Cc2ccccc2)n1)c1ccc(CCNC[C@H](O)COc2ccc(O)cc2)cc1 (stereo partly drawn) [Example 24, 4-({(2S)-3-[(4-{[(5-benzyl-1,2,4-oxadiazol-3-yl)methyl]sulfinyl}phenethyl)amino]-2-hydroxypropyl}oxy)phenol]	51 to 57	431	0.62
COc1ccc(-c2nc(CS(=O)(=O)c3ccc(CCNC[C@H](O)c4ccc(O)c(NS(C)(=O)=O)c4)cc3)no2)cc1 [Example 27, N-[2-hydroxy-5-((1R)-1-hydroxy-2-{[4-({[5-(4-methoxyphenyl)-1,2,4-oxadiazol-3-yl]methyl}sulfonyl)phenethyl]amino}ethyl)phenyl]methanesulfonamide]		25	1
COc1ccc(-c2nc(CS(=O)(=O)c3ccc(CCNC[C@H](O)COc4ccc(O)cc4)cc3)no2)cc1 [Example 29, 4[((2S)-2-hydroxy-3-{[4-({[5-(4-methoxyphenyl)-1,2,4-oxadiazol-3-yl]methyl}sulfonyl)phenethyl]amino}propyl)oxy]phenol]		33	1.1
CC(C)(C)c1nc(CSc2ccc(CCNC[C@H](O)COc3ccc(O)cc3)cc2)no1 [Example 32, (2S)-4-(3-{2-[4-(5-tert-Butyl-[1,2,4]oxadiazol-3-ylmethylsulfanyl) -phenyl]-ethylamino}-2-hydroxy-propoxy)-phenol]		330	1.2
Cc1ccc(-c2noc(CSc3ccc(CCNC[C@H](O)COc4cccc5[nH]nnc45)cc3)n2)cc1 [Example 33, (2S)-1-(1H-1,2,3-benzotriazol-4-yloxy)-3-{[4-({[3-(4-methylphenyl)-1,2,4-oxadiazol-5-yl]methyl}sulfanyl)phenethyl]amino}-2-propanol]	110	789	0.44
